Earlier results in PubChem BioAssay AID1259409 (Chemical Carcinogenesis Research Information System (CCRIS), 2018).

Test system: rodent chemically induced tumor inhibition, incidence and multiplicity
Assay: CCRIS tumor inhibitor studies
Conditions: Carcinogen: N-NITROSOBIS(2-OXYPROPYL)AMINE, 60599-38-4, Route [Inhibitor]: ORAL, Species: HAMSTER, Promoter: NONE USED

CC1=C(/C=C/C(C)=C/C=C/C(C)=C/C(=O)NCCO)C(C)(C)CCC1
tumour outcome (control, treated, inhibition, significance) (Dose [Inhibitor]: 0.05, 0.1 OR 0.2 MILLIMOLAR/KG DIET FOR 32 WK STARTING 1 WK AFTER THE CARCINOGEN DOSE (STUDY DURATION: 33 WK), Strain/Sex: SYRIAN/FEMALE, Target Tissue: Type of Lesion: COMMON DUCT: ADENOMA, Dose [Carcinogen]: 40 MG/KG ONCE): 4/10 (40%), 19/29 (66%), -65%, not significant | tumour outcome (control, treated, inhibition, significance) (Dose [Inhibitor]: 0.05, 0.1 OR 0.2 MILLIMOLAR/KG DIET FOR 32 WK STARTING 1 WK AFTER THE CARCINOGEN DOSE (STUDY DURATION: 33 WK), Strain/Sex: SYRIAN/FEMALE, Target Tissue: Type of Lesion: GALL BLADDER: ADENOMA, Dose [Carcinogen]: 40 MG/KG ONCE): 6/10 (60%), 17/29 (59%), 2%, not significant | tumour outcome (control, treated, inhibition, significance) (Dose [Inhibitor]: 0.05, 0.1 OR 0.2 MILLIMOLAR/KG DIET FOR 32 WK STARTING 1 WK AFTER THE CARCINOGEN DOSE (STUDY DURATION: 33 WK), Strain/Sex: SYRIAN/FEMALE, Target Tissue: Type of Lesion: LUNG: ADENOMA, Dose [Carcinogen]: 40 MG/KG ONCE): 3/10 (30%), 4/29 (14%), 53%, p<0.025 | tumour outcome (control, treated, inhibition, significance) (Dose [Inhibitor]: 0.05, 0.1 OR 0.2 MILLIMOLAR/KG DIET FOR 32 WK STARTING 1 WK AFTER THE CARCINOGEN DOSE (STUDY DURATION: 33 WK), Strain/Sex: SYRIAN/FEMALE, Target Tissue: Type of Lesion: PANCREAS: ADENOMA, Dose [Carcinogen]: 40 MG/KG ONCE): 10/10 (100%), 29/29 (100%), 0%, not significant | tumour outcome (control, treated, inhibition, significance) (Dose [Inhibitor]: 0.05, 0.1 OR 0.2 MILLIMOLAR/KG DIET FOR 32 WK STARTING 1 WK AFTER THE CARCINOGEN DOSE (STUDY DURATION: 33 WK), Strain/Sex: SYRIAN/FEMALE, Target Tissue: Type of Lesion: PANCREAS: CARCINOMA, Dose [Carcinogen]: 40 MG/KG ONCE): 4/10 (40%), 15/29 (52%), -30%, not significant | tumour outcome (control, treated, inhibition, significance) (Dose [Inhibitor]: 0.05, 0.1 OR 0.2 MILLIMOLAR/KG DIET FOR 32 WK STARTING 1 WK AFTER THE CARCINOGEN DOSE (STUDY DURATION: 33 WK), Strain/Sex: SYRIAN/MALE, Target Tissue: Type of Lesion: COMMON DUCT: ADENOMA, Dose [Carcinogen]: 40 MG/KG ONCE): 4/12 (33%), 23/29 (79%), -139%, not significant | tumour outcome (control, treated, inhibition, significance) (Dose [Inhibitor]: 0.05, 0.1 OR 0.2 MILLIMOLAR/KG DIET FOR 32 WK STARTING 1 WK AFTER THE CARCINOGEN DOSE (STUDY DURATION: 33 WK), Strain/Sex: SYRIAN/MALE, Target Tissue: Type of Lesion: GALL BLADDER: ADENOMA, Dose [Carcinogen]: 40 MG/KG ONCE): 3/12 (25%), 17/29 (59%), -136%, not significant | tumour outcome (control, treated, inhibition, significance) (Dose [Inhibitor]: 0.05, 0.1 OR 0.2 MILLIMOLAR/KG DIET FOR 32 WK STARTING 1 WK AFTER THE CARCINOGEN DOSE (STUDY DURATION: 33 WK), Strain/Sex: SYRIAN/MALE, Target Tissue: Type of Lesion: LIVER: ADENOMA, Dose [Carcinogen]: 40 MG/KG ONCE): 6/12 (50%), 8/29 (28%), 44%, not significant | tumour outcome (control, treated, inhibition, significance) (Dose [Inhibitor]: 0.05, 0.1 OR 0.2 MILLIMOLAR/KG DIET FOR 32 WK STARTING 1 WK AFTER THE CARCINOGEN DOSE (STUDY DURATION: 33 WK), Strain/Sex: SYRIAN/MALE, Target Tissue: Type of Lesion: LUNG: ADENOMA, Dose [Carcinogen]: 40 MG/KG ONCE): 1/12 (8%), 5/29 (17%), -113%, not significant | tumour outcome (control, treated, inhibition, significance) (Dose [Inhibitor]: 0.05, 0.1 OR 0.2 MILLIMOLAR/KG DIET FOR 32 WK STARTING 1 WK AFTER THE CARCINOGEN DOSE (STUDY DURATION: 33 WK), Strain/Sex: SYRIAN/MALE, Target Tissue: Type of Lesion: PANCREAS: ADENOMA, Dose [Carcinogen]: 40 MG/KG ONCE): 12/12 (100%), 29/29 (100%), 0%, not significant | tumour outcome (control, treated, inhibition, significance) (Dose [Inhibitor]: 0.05, 0.1 OR 0.2 MILLIMOLAR/KG DIET FOR 32 WK STARTING 1 WK AFTER THE CARCINOGEN DOSE (STUDY DURATION: 33 WK), Strain/Sex: SYRIAN/MALE, Target Tissue: Type of Lesion: PANCREAS: CARCINOMA, Dose [Carcinogen]: 40 MG/KG ONCE): 6/12 (50%), 10/29 (34%), 32%, not significant | tumour outcome (control, treated, inhibition, significance) (Dose [Inhibitor]: 0.05, 0.1 OR 0.2 MM/KG DIET FOR 32 WK STARTING 1 WK AFTER THE CARCINOGEN DOSE (STUDY DURATION: 33 WK), Strain/Sex: SYRIAN/FEMALE, Target Tissue: Type of Lesion: PANCREAS: ADENOCARCINOMA, Dose [Carcinogen]: 40 MG/KG, ONCE, ONE WK PRIOR TO START OF AGENT TREATMENT): 2/10 (20%), 2/29 (7%), 65%, not significant
